Values joined by “and” are separate entries in the source; they are usually repeats but may differ in a detail not shown here. Equal values may be shown once.
How the values were obtained:
[1] = system: rat MCT+PN model; assay: Pulmonary arteriole morphometry and occlusion analysis in rat MCT+PN model; assay type: in vivo
From the text: At the end of the study, the heart and lungs were removed from ventilated animals under general anesthesia. Heparinized saline was infused under pressure through the main pulmonary artery. The right upper lobe was immediately tied off and placed in liquid nitrogen for Western blot and NanoPro 100 assay analysis. The heart was removed, and the RV free wall, interventricular septum and LV free wall dissected and weighed. Buffered formalin (10%) was infused under pressure both through the pulmonary artery and the trachea. Morphometric analysis was performed on H&E stained formalin fixed tissue sectioned at 8 μm. The media area and lumen area of pulmonary arterioles were measured with Image J software by a technician blinded to treatment group. Measurements were made on 20 pulmonary arterioles per section. The ratio of the lumen area to the total media area was determined. This ratio normalizes the variation in total pulmonary arteriole area. In addition, occlusive analysis was performed in the monocrotaline plus pneumonectomy study (specifically efficacy study 5) according to the method of Homma et al., “Involvement of RhoA/Rho kinase signaling in protection against monocrotaline-induced pulmonary hypertension in pneumonectomized rats by dehydroepiandrosterone.” Am J Physiol Lung Cell Mol Physiol. Vol. 295:L71-8 (2008). Briefly, pre-capillary arterioles were assigned grade 0 for no evidence of neointimal lesions, grade 1 for less than 50% luminal occlusion, and grade 2 for greater than 50% occlusion. Masson Trichrome stains were performed on lung sections from the MCT+PN model.

[2] = Fluorescent imaging of lung distribution after inhalation with IR780 tracer; assay type: in vivo, rat; conditions: 2 min inhalation with IR780 tracer
Protocol: A near IR fluorescent tracer, IR-780, was added to the drug solution in the nebulizer to ensure dried aerosol particles contained both the drug and IR tracer. After a two min exposure, animals were placed under general anesthesia underwent intubation via tracheostomy, and the lungs were excised. OCT/PBS was infused via the pulmonary artery, the lung insufflated with air, and the lungs frozen in the vapor phase of liquid nitrogen. Serial approximate 2 mm sections of lung were imaged on a Licor Odyssey Imager.

[3] = Pharmacokinetic study, inhaled vs intravenous, lung and plasma levels; assay type: in vivo, rat; conditions: [(AUClung/AUCplasma)respiratory]/[(AUClung/AUCplasma)IV]
Protocol: PK10453 (Structure 2) was administered intravenously or by inhalation to animals, which were then euthanized at time 0, 10, 20, and 60 min (n=3 each time point). Blood samples were taken by cardiac puncture, and the lungs excised. The lungs were homogenized and PK10453 (Structure 2) extracted with a 1:3 mixture of acetonitrile:methanol. Similarly, plasma was extracted with a 1:3 mixture of acetonitrile:methanol. Drug was assayed by LC MS/MS (PharmOptima Inc., Portage Mich.). First order exponential curves were fit to the data with Excel. AUC was determined with the trapezoidal method of integration.
For the pharmacokinetic study, the concentration of PK10453 (Structure 2) in lung when administered by inhalation was compared to the concentration achieved with IV administration. As described in Moren “Aerosols in medicine: principles, diagnosis, and therapy.” Amsterdam; New York: Elsevier, xx, 429 (1993) and Phalen et al., “Inhalation exposure methodology.” Environ Health Perspect 56:23-34 (1984)), it is possible to estimate the pharmacokinetic advantage of inhalation relative to intravenous administration, Rd, by comparing the AUC of a plot of the drug concentration as a function of time following respiratory and IV administration: […]
The pharmacokinetic data was modeled to a first order exponential curve, and the AUC calculated from the curves (see Table 2). […]

[4] = system: rat monocrotaline plus pneumonectomy model; assay: Trichrome stain of lung sections, rat monocrotaline plus pneumonectomy model; assay type: in vivo; conditions: inhaled; compared to vehicle treated animal; FIG. 42
From the text: At the end of the study, the heart and lungs were removed from ventilated animals under general anesthesia. Heparinized saline was infused under pressure through the main pulmonary artery. The right upper lobe was immediately tied off and placed in liquid nitrogen for Western blot and NanoPro 100 assay analysis. The heart was removed, and the RV free wall, interventricular septum and LV free wall dissected and weighed. Buffered formalin (10%) was infused under pressure both through the pulmonary artery and the trachea. Morphometric analysis was performed on H&E stained formalin fixed tissue sectioned at 8 μm. The media area and lumen area of pulmonary arterioles were measured with Image J software by a technician blinded to treatment group. Measurements were made on 20 pulmonary arterioles per section. The ratio of the lumen area to the total media area was determined. This ratio normalizes the variation in total pulmonary arteriole area. In addition, occlusive analysis was performed in the monocrotaline plus pneumonectomy study (specifically efficacy study 5) according to the method of Homma et al., “Involvement of RhoA/Rho kinase signaling in protection against monocrotaline-induced pulmonary hypertension in pneumonectomized rats by dehydroepiandrosterone.” Am J Physiol Lung Cell Mol Physiol. Vol. 295:L71-8 (2008). […]

[5] = system: phosphorylated AKT, STAT3 and ERK1/2 in lung extracts; assay: NanoPro immunoassay of lung extracts, rat MCT+PN model; assay type: in vivo
Protocol: Relative differences in phosphorylated ERK1/2 and STAT isoforms were measured with a anoProlOO® immunoassay system (Protein Simple/Cell Biosciences, CA). See Fan et al., “Nanofluidic proteomic assay for serial analysis of oncoprotein activation in clinical specimens.” Nat Med 15:566-571 (2009).

[6] = system: rat MCT model; assay: Efficacy in rat MCT model, PK10453 dose response; assay type: in vivo
Protocol: Male Sprague Dawley rats received MCT 60 mg/kg IPMCT, and after 3 weeks, PK10453 (Structure 2) or vehicle control were administered by inhalation. Four groups were studied: vehicle control (4 min exposure) and three treatment groups of PK10453 (Structure 2) with exposure times 2 min (D2), 4 min (D4), or 8 min (D8) three times a day. These regimens were administered for two weeks. The vehicle consisted of aerosolized 1M tosylic acid neutralized with ammonia vapor as described above. The pH of a solution prepared by dissolving captured aerosol particles in water was measured for every dose and was consistently in the range of 5.5-6.0. At the end of the study, the RV systolic pressure was measured, and the heart chambers dissected and weighed.

[7] = target: PDGFRbeta (Homo sapiens, UniProt P09619); conditions: FIG. 25
Protocol: A Z-lyte kinase assay was performed to determine the inhibition of PDGFRalpha and PDGFRbeta mediated phosphorylation by PK10453 (Structure 2). Ten point titration curves were modeled to calculate the IC50 (Invitrogen Select Screen®).

[8] = Aerosol particle size of nebulized drug, Anderson cascade impactor; assay type: physicochemical; conditions: 20 mg/ml in 1M tosylic acid, PARI nebulizer
Protocol: PK10453 (Structure 2) was dissolved at a concentration of 20 mg/ml in 1M tosylic acid. Nebulization was performed with a PARI Nebulizer with an air pressure of 12.5 psi. The aerosol droplets were neutralized by ammonia vapor that was passed into the aerosol air stream. The particles were then dried by flowing through an annular ring of silica bead cartridges prior to reaching the exposure chamber. The 6-port exposure chamber was a nose-only exposure system custom designed and built by Powerscope Inc. (Minneapolis, Minn.). The vacuum flow rate at each port was separately controlled by a flow meter. The aerosol particle size was measured at the exit port of the drying column with an Anderson (Mark II) cascade impactor. The mass median aerodynamic diameter (MMAD) was 2 μm and the associated geometric standard deviation (GSD) was 1.6.

[9] = system: PDGFAA stimulated phosphorylation of ERK1 and ERK2; assay: PDGFAA stimulated phosphorylation of ERK1 and ERK2 in human fetal lung fibroblasts; assay type: cell-based; conditions: 1 uM; PDGFAA 10 ng/ml
From the text: Data shown are mean±SEM. […] PK10453=structure 2; PK10571=structure 2a. Platelet derived growth factor receptor alpha=PDGFR-alpha=PDGFR-α=PDGF receptor alpha=PDGF alpha receptor. Platelet derived growth factor receptor beta=PDGFR-beta=PDGFRβ=PDGF receptor beta=PDGF beta receptor.

Sequence of PDGFRbeta (P09619 600-962 limits assumed): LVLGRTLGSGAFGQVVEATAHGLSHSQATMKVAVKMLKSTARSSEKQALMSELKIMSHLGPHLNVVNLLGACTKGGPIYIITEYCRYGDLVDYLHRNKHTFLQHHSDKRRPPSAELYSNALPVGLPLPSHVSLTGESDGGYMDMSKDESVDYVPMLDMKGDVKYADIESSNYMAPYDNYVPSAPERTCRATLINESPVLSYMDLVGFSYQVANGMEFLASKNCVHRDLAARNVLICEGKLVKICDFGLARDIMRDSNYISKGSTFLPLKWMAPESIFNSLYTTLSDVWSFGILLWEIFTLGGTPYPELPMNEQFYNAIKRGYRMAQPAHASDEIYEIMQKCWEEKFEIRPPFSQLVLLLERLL

COc1cc(-c2cncc(N[C@@H](C)c3cccc(NC(=O)c4cncc(C)c4)c3)n2)ccc1O [PK10453, (S)—N-(3-(1-((6-(4-hydroxy-β-methoxyphenyl)pyrazin-2yl)amino)ethyl)phenyl)-5-methylnicotinamide]
Grade 2 occlusion lesions ([1]; D4): 28.5±4.2%
lumen area to media area ratio (L/M) ([1]; D4, FIG. 7 PANEL C): 0.33±0.06
Grade 2 occlusion lesions ([1]; D8): 11.4±4.1%
lumen area to media area ratio (L/M) ([1]; D8, FIG. 7 PANEL C): 0.72±0.05
lumen area to media area ratio (L/M) ([1]; higher dose D8, FIG. 9): 1.17±0.07
lumen area to media area ratio (L/M) ([1]; lower dose D4, FIG. 9): 0.75±0.14
spatial distribution in lung after inhalation [2]: well distributed throughout the lungs
Rd, pharmacokinetic advantage of inhalation relative to intravenous administration [3]: 44.6 fold and 45 fold and 44.58 fold
collagen deposition in lung sections (trichrome stain) [4]: less collagen deposition
pAKT(Ser473)/AKT ratio in lung extracts [5]: significant reduction
pERK1/ERK1 in lung homogenates ([5]; D4 and D8 compared to vehicle): significant reductions
pSTAT3/STAT3 ratio in lung ([5]; D4 and D8 compared to vehicle): significant reduction
ppERK1/ERK1 in lung homogenates ([5]; D4 and D8 compared to vehicle): significant reductions
pAKT(Thr308)/AKT ratio in lung extracts ([5]; V, D4, D8): not significantly different
degree of RV hypertrophy, ratio (RV+IVS)/LV weight ([6]; rat MCT): significant reduction
decrease of RV systolic pressure ([6]; rat MCT model, discussion): 50%
reduction in RVSP compared to the vehicle treated group ([6]; rat MCT, D4): 44%
reduction in RVSP compared to the vehicle treated group ([6]; rat MCT, D8): 54%
potency against PDGFR beta kinase domain relative to imatinib [7]: more potent than imatinib
mass median aerodynamic diameter (MMAD) of dried nebulized aerosol [8]: 2 μm
decrease of PDGF AA stimulated ppERK1 and ppERK2 formation [9]: equally effective

Reference: US20180193336A1, “SPRAY DRY FORMULATIONS” (Pulmokine, Inc., priority 2013, published 2018)
